The values that follow are results of earlier work, collected in patent US20090022794A1, “Topiramate Tablet Formulation” (priority 2005, published 2009).

In brackets after ≈: the same amount, converted by molar mass.

The conditions of data set [1]: relative humidity as high as 90%.

Consider `OC[C@@H](O)[C@@H](O)[C@H](O)[C@H](O)CO` [Mannitol], for which the moisture picked up result in data set [1] is “less than 1%”.

In the case of `CC1(C)O[C@@H]2[C@@H](CO[C@@]3(COS(N)(=O)=O)OC(C)(C)O[C@@H]23)O1` [Topiramate, 2,3:4,5-Bis-O-(1-methylethylidene)-β-D-fructopyranose sulfamate], the “solubility in alkaline solutions, acetone, dimethylsulfoxide and ethanol” value (alkaline solutions, acetone, dimethylsulfoxide, ethanol) is given as “soluble”. The solubility in water (water) is 9800 µg/mL (≈ 28.9 mM).
